Laboratory results published in patent publication US20230279025A1, “KRAS G12D INHIBITORS” (Mirati Therapeutics, Inc., priority 2020, published 2023).
pIC50: −log10 of the molar value.

Biological target: KRas G12D (Homo sapiens (Human), UniProt P01116, G12D)
Experiment: KRas G12D Binding Assay (TR-FRET displacement of Cy5 labelled tracer)
Conditions: GDP-loaded KRAS G12D (amino acids 1:169), 60 minute incubation at 22° C.
Description: After a 60 minute incubation at 22° C., the reaction was measured using a PerkinElmer EnVision multimode plate reader via TR-FRET dual wavelength detection, and the percent of control (POC) calculated using a ratiometric emission factor. […] The POC values were fit to a 4-parameter logistic curve and the IC50 value was determined as the concentration where the curve crosses 50 POC.
ND stands for “not determined.”

Chain of KRas G12D (P01116 other isoform, or with tags, fused parts or gaps G12D): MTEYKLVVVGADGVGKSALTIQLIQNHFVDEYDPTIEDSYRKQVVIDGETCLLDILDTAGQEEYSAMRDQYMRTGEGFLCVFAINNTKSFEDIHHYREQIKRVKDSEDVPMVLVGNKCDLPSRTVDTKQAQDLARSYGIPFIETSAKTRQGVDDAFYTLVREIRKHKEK

Structure (SMILES)	pIC50
COc1cccc2cccc(-c3ncc4c(N5C[C@H]6CC[C@@H](C5)N6)nc(OCC56CCCN5CCC6)nc4c3F)c12 [Example 236, 4-((1R,5S)-3,8-diazabicyclo[3.2.1]octan-3-yl)-8-fluoro-2-((hexahydro-1H-pyrrolizin-7a-yl)methoxy)-7-(8-methoxynaphthalen-1-yl)pyrido[4,3-d]pyrimidine]	7.60
Oc1cccc2cccc(-c3ncc4c(N5C[C@H]6CC[C@@H](C5)N6)nc(OCC56CCCN5CCC6)nc4c3F)c12 [Example 237, 8-(4-((1R,5S)-3,8-diazabicyclo[3.2.1]octan-3-yl)-8-fluoro-2-((tetrahydro-1H-pyrrolizin-7a(5H)-yl)methoxy)pyrido[4,3-d]pyrimidin-7-yl)naphthalen-1-ol]	6.30
OCc1cccc2cccc(-c3ncc4c(N5C[C@H]6CC[C@@H](C5)N6)nc(OCC56CCCN5CCC6)nc4c3F)c12 [Example 238, (8-(4-((1R,5S)-3,8-diazabicyclo[3.2.1]octan-3-yl)-8-fluoro-2-((tetrahydro-1H-pyrrolizin-7a(5H)-yl)methoxy)pyrido[4,3-d]pyrimidin-7-yl)naphthalen-1-yl)methanol]	7.79
OCCc1cccc2cccc(-c3ncc4c(N5C[C@H]6CC[C@@H](C5)N6)nc(OCC56CCCN5CCC6)nc4c3F)c12 [Example 239, 2-(8-(4-((1R,5S)-3,8-diazabicyclo[3.2.1]octan-3-yl)-8-fluoro-2-((tetrahydro-1H-pyrrolizin-7a(5H)-yl)methoxy)pyrido[4,3-d]pyrimidin-7-yl)naphthalen-1-yl)ethan-1-ol]	8.70
NC(=O)Cc1cccc2cccc(-c3ncc4c(N5C[C@H]6CC[C@@H](C5)N6)nc(OCC56CCCN5CCC6)nc4c3F)c12 [Example 240, 2-(8-(4-((1R,5S)-3,8-diazabicyclo[3.2.1]octan-3-yl)-8-fluoro-2-((tetrahydro-1H-pyrrolizin-7a(5H)-yl)methoxy)pyrido[4,3-d]pyrimidin-7-yl)naphthalen-1-yl)acetamide]	6.50
NCC#Cc1cccc2cccc(-c3ncc4c(N5C[C@H]6CC[C@@H](C5)N6)nc(OCC56CCCN5CCC6)nc4c3F)c12 [Example 241, 3-(8-(4-((1R,5S)-3,8-diazabicyclo[3.2.1]octan-3-yl)-8-fluoro-2-((tetrahydro-1H-pyrrolizin-7a(5H)-yl)methoxy)pyrido[4,3-d]pyrimidin-7-yl)naphthalen-1-yl)prop-2-yn-1-amine]	7.10
CCC#Cc1cccc2cccc(-c3ncc4c(N5C[C@H]6CC[C@@H](C5)N6)nc(OCC56CCCN5CCC6)nc4c3F)c12 [Example 242, 4-((1R,5S)-3,8-diazabicyclo[3.2.1]octan-3-yl)-7-(8-(but-1-yn-1-yl)naphthalen-1-yl)-8-fluoro-2-((tetrahydro-1H-pyrrolizin-7a(5H)-yl)methoxy)pyrido[4,3-d]pyrimidine]	7.09
C#Cc1cccc2cc(O)cc(-c3ncc4c(N5C[C@H]6CC[C@@H](C5)N6)nc(OC[C@@]56CCCN5C[C@H](F)C6)nc4c3F)c12 [Example 243]	9.40
C#Cc1cccc2cc(O)cc(-c3ncc4c(N5C[C@H]6CC[C@@H](C5)N6)ncnc4c3F)c12 [Example 244, 4-(4-((1R,5S)-3,8-diazabicyclo[3.2.1]octan-3-yl)-8-fluoropyrido[4,3-d]pyrimidin-7-yl)-5-ethynylnaphthalen-2-ol]	8.38
Oc1cc(-c2ncc3c(N4C[C@H]5CC[C@@H](C4)N5)nc(OCC45CCCN4CCC5)nc3c2F)c2c(Cl)c(F)ccc2c1 [Example 245, 4-(4-((1R,5S)-3,8-diazabicyclo[3.2.1]octan-3-yl)-8-fluoro-2-((hexahydro-1H-pyrrolizin-7a-yl)methoxy)pyrido[4,3-d]pyrimidin-7-yl)-5-chloro-6-fluoronaphthalen-2-ol]	9.30
Oc1cc(-c2ncc3c(N4C[C@H]5CC[C@@H](C4)N5)nc(OC[C@@]45CCCN4C[C@H](F)C5)nc3c2F)c2c(F)c(F)ccc2c1 [Example 246, 4-(4-((1R,5S)-3,8-diazabicyclo[3.2.1]octan-3-yl)-8-fluoro-2-(((2R,7aS)-2-fluorohexahydro-1H-pyrrolizin-7a-yl)methoxy)pyrido[4,3-d]pyrimidin-7-yl)-5,6-difluoronaphthalene-2-ol]	9.22
Fc1c(-c2cccc3cccc(CC(F)F)c23)ncc2c(N3C[C@H]4CC[C@@H](C3)N4)nc(OCC34CCCN3CCC4)nc12 [Example 247, 4-((1R,5S)-3,8-diazabicyclo[3.2.1]octan-3-yl)-7-(8-(2,2-difluoroethyl)naphthalen-1-yl)-8-fluoro-2-((hexahydro-1H-pyrrolizin-7a-yl)methoxy)pyrido[4,3-d]pyrimidine]	7.90
FCCc1cccc2cccc(-c3ncc4c(N5C[C@H]6CC[C@@H](C5)N6)nc(OCC56CCCN5CCC6)nc4c3F)c12 [Example 248, 4-((1R,5S)-3,8-diazabicyclo[3.2.1]octan-3-yl)-8-fluoro-7-(8-(2-fluoroethyl)naphthalen-1-yl)-2-((tetrahydro-1H-pyrrolizin-7a(5H)-yl)methoxy)pyrido[4,3-d]pyrimidine]	8.49
Cc1cc2[nH]ncc2c(-c2ncc3c(N4C[C@H]5CC[C@@H](C4)N5)nc(OCC45CCCN4CCC5)nc3c2F)c1C [Example 249, 4-((1R,5S)-3,8-diazabicyclo[3.2.1]octan-3-yl)-7-(5,6-dimethyl-1H-indazol-4-yl)-8-fluoro-2-((hexahydro-1H-pyrrolizin-7a-yl)methoxy)pyrido[4,3-d]pyrimidine]	8.46
Cc1cc2[nH]ccc2c(-c2ncc3c(N4C[C@H]5CC[C@@H](C4)N5)nc(OCC45CCCN4CCC5)nc3c2F)c1C [Example 250, 4-((1R,5S)-3,8-diazabicyclo[3.2.1]octan-3-yl)-7-(5,6-dimethyl-1H-indol-4-yl)-8-fluoro-2-((hexahydro-1H-pyrrolizin-7a-yl)methoxy)pyrido[4,3-d]pyrimidine]	7.55
Oc1cc(-c2ncc3c(N4C[C@H]5CC[C@@H](C4)N5)nc(OC[C@@]45CCCN4C[C@H](F)C5)nc3c2F)c2c(Cl)cccc2c1 [Example 251, 4-(4-((1R,5S)-3,8-diazabicyclo[3.2.1]octan-3-yl)-8-fluoro-2-(((2R,7aS)-2-fluorohexahydro-1H-pyrrolizin-7a-yl)methoxy)pyrido[4,3-d]pyrimidin-7-yl)-5-chloronaphthalen-2-ol]	9.70
CCCc1cccc2cccc(-c3ncc4c(N5C[C@H]6CC[C@@H](C5)N6)nc(OCC56CCCN5CCC6)nc4c3F)c12 [Example 254, 4-((1R,5S)-3,8-diazabicyclo[3.2.1]octan-3-yl)-8-fluoro-2-((hexahydro-1H-pyrrolizin-7a-yl)methoxy)-7-(8-propylnaphthalen-1-yl)pyrido[4,3-d]pyrimidine]	8.21
FCCCc1cccc2cccc(-c3ncc4c(N5C[C@H]6CC[C@@H](C5)N6)nc(OCC56CCCN5CCC6)nc4c3F)c12 [Example 255, 4-((1R,5S)-3,8-diazabicyclo[3.2.1]octan-3-yl)-8-fluoro-7-(8-(3-fluoropropyl)naphthalen-1-yl)-2-((hexahydro-1H-pyrrolizin-7a-yl)methoxy)pyrido[4,3-d]pyrimidine]	8.06
Cc1ccc(O)cc1-c1ncc2c(N3C[C@H]4CC[C@@H](C3)N4)nc(OCC34CCCN3CCC4)nc2c1F [Example 256, 3-(4-((1R,5S)-3,8-diazabicyclo[3.2.1]octan-3-yl)-8-fluoro-2-((hexahydro-1H-pyrrolizin-7a-yl)methoxy)pyrido[4,3-d]pyrimidin-7-yl)-4-methylphenol]	7.88
Fc1c(-c2c3ccccc3cc3[nH]ncc23)ncc2c(N3C[C@H]4CC[C@@H](C3)N4)nc(OCC34CCCN3CCC4)nc12 [Example 257, 4-(4-((1R,5S)-3,8-diazabicyclo[3.2.1]octan-3-yl)-8-fluoro-2-((hexahydro-1H-pyrrolizin-7a-yl)methoxy)pyrido[4,3-d]pyrimidin-7-yl)-1H-benzo[f]indazole]	8.29
Fc1c(-c2c(OC(F)(F)F)ccc3[nH]ncc23)ncc2c(N3C[C@H]4CC[C@@H](C3)N4)nc(OCC34CCCN3CCC4)nc12 [Example 258, 4-((1R,5S)-3,8-diazabicyclo[3.2.1]octan-3-yl)-8-fluoro-2-((hexahydro-1H-pyrrolizin-7a-yl)methoxy)-7-(5-(trifluoromethoxy)-1H-indazol-4-yl)pyrido[4,3-d]pyrimidine]	8.19
CCc1cccc2cc(O)cc(-c3ncc4c(N5C[C@H]6CC[C@@H](C5)N6)nc(OC[C@@]56CCCN5C[C@H](F)C6)nc4c3F)c12 [Example 259, 4-(4-((1R,5S)-3,8-diazabicyclo[3.2.1]octan-3-yl)-8-fluoro-2-(((2R,7aS)-2-fluorotetrahydro-1H-pyrrolizin-7a(5H)-yl)methoxy)pyrido[4,3-d]pyrimidin-7-yl)-5-ethylnaphthalen-2-ol]	9.10
CN1C[C@H](OC(=O)NCCOCc2ccc(O)cc2)C[C@H]1COc1nc(N2C[C@H]3CC[C@@H](C2)N3)c2cnc(-c3cccc4cccc(Cl)c34)c(F)c2n1 [Example 260, (3R,5S)-5-(((4-((1R,5S)-3,8-diazabicyclo[3.2.1]octan-3-yl)-7-(8-chloronaphthalen-1-yl)-8-fluoropyrido[4,3-d]pyrimidin-2-yl)oxy)methyl)-1-methylpyrrolidin-3-yl (2-((4-hydroxybenzyl)oxy)ethyl)carbamate]	6.97
NCCOc1nc(N2C[C@H]3CC[C@@H](C2)N3)c2cnc(-c3cccc4cccc(Cl)c34)c(F)c2n1 [Example 261, 2-((4-((1R,5S)-3,8-diazabicyclo[3.2.1]octan-3-yl)-7-(8-chloronaphthalen-1-yl)-8-fluoropyrido[4,3-d]pyrimidin-2-yl)oxy)ethanamine]	5.08
NC1(COc2nc(N3C[C@H]4CC[C@@H](C3)N4)c3cnc(-c4cccc5cccc(Cl)c45)c(F)c3n2)CCCCC1 [Example 262, 1-(((4-((1R,5S)-3,8-diazabicyclo[3.2.1]octan-3-yl)-7-(8-chloronaphthalen-1-yl)-8-fluoropyrido[4,3-d]pyrimidin-2-yl)oxy)methyl)cyclohexanamine]	5.65
